The text below walks through data of US7342000B2, “Semisynthetic macrolide antibiotics of the azalide series” (GlaxoSmithKline istrazivacki center Zagreb, priority 2002, dated 2008).

Structures are written as SMILES.

Assay in all cases: MIC by broth dilution (NCCLS M7-A2)
Type in all cases: cell-based
What all share (conditions): 90% growth inhibition

The test system of assay [1] is E. faecalis ATCC 29212. The source says: (§1) MIC levels for all compound were determinated on panel of susceptible, and resistant Gram positive bacterial strains (S. aureus, S. pneumoniae and S. pyogenes) and on Gram negative strains (E. coli, H. influenzae, […], M. catarrhalis).
For assay [2], the system named is M. catarrhalis ATCC 23246.
Source text: as §1

The test system of assay [3] is H. influenzae ATCC 49247.
Source text: as §1

Assay [4] relates to S. pyogenes iMLS.
Source text: as §1

Assay [5] relates to E. coli ATCC 25922.
Source text: as §1

The subject of assay [6] is S. pyogenes.
Source text: as §1

Assay [7] concerns S. aureus ATCC 13709.
Source text: as §1

The test system of assay [8] is S. pneumoniae.
Source text: as §1

For assay [9], the system named is S. pyogenes M.
Source text: as §1

As for `CC[C@H]1OC(=O)[C@H](C)[C@@H](O[C@H]2C[C@@](C)(OC)[C@@H](O)[C@H](C)O2)[C@H](C)[C@@H](O[C@@H]2O[C@H](C)C[C@H](N(C)C)[C@H]2O)[C@](C)(O)C[C@@H](C)CN(CCCNC(=O)Nc2ccccc2C(F)(F)F)[C@H](C)[C@@H](O)[C@]1(C)O` [Example 6, 9-Deoxo-9-dihydro-9a-N-[N′-(2-trifluoromethyl)phenylcarbamoyl-γ-aminopropyl]-9a-aza-9a-homoerithromycin A], the MIK in assay [1] was 64 µg/mL; in assay [2] it was 8 µg/mL; in assay [3], 16 µg/mL; in assay [4] it was 8 µg/mL; in [5], 32 µg/mL; in assay [6], “≦0.125 μg/ml”. In addition, the results for the MIK in assay [7], in assay [8] and in assay [9] were 2 µg/mL, “≦0.125 μg/ml” and 32 µg/mL, respectively.
